From patent US20260193272A1, “SELENIUM CONTAINING HETEROCYCLE COMPOUNDS AND USE THEREOF” (HELIOS HUAMING BIOPHARMA CO., LTD., priority 2022, published 2026)

Molecular target: T1, PAD4 enzyme (Homo sapiens, UniProt Q9UM07)
T1 construct: PAD4 enzyme was diluted to 30 nM in Assay Buffer
Assay: In-vitro measurement for enzymatic PAD4 citrullination inhibition activity (ammonia release)
Type: biochemical
Conditions: direct comparison of prior art and selenium containing compounds; read-out: IC50 for enzymatic PAD4 citrullination inhibition
Method: Citrullination was detected via ammonia release based on published methodology (Nature Chemical Biology, 2015, 11: 189-191).
PAD4 enzyme was diluted to 30 nM in Assay Buffer (100 mM HEPES, 50 mM NaCl, 2 mM DTT, 0.6 mg/ml BSA, pH 8) and added to wells containing various concentrations of compound or DMSO vehicle (0.8% final) in a high-volume black 96-well plate (Greiner). Following a 60-min preincubation at 27° C., the reaction was initiated by the addition of substrate (3 mM BAEE in 100 mM HEPES, 50 mM NaCl, […] CaCl2, 2 mM DTT, pH 8). The reaction was stopped after 90 min by the addition of stop/detection buffer containing 50 mM EDTA, 2.6 mM o-phthalaldehyde and 2.6 mM DTT. Assays were incubated at 27° C. for 120 min before measuring fluorescence (λex 410/λem 476) on an Envision plate reader (PerkinElmer). After which IC50 values were calculated using GraphPad Prism 8.0.

T1 sequence (Q9UM07 whole entry): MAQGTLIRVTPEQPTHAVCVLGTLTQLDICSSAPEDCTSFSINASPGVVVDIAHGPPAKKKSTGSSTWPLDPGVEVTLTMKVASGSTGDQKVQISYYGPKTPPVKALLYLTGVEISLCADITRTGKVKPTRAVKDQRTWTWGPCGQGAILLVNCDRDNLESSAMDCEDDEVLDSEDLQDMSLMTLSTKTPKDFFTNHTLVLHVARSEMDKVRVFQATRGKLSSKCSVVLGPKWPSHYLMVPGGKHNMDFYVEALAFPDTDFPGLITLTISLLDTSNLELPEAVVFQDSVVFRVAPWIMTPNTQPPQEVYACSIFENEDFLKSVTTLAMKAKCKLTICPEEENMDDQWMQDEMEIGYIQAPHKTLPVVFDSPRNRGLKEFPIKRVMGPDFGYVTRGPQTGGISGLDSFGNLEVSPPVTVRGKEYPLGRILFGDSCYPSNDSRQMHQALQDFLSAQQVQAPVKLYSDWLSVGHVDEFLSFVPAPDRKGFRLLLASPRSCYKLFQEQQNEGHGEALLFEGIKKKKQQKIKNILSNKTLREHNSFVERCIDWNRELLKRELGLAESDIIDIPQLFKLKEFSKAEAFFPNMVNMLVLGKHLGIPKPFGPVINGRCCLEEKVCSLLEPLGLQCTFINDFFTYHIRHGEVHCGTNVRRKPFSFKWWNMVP

Row | IC50 [µM] | SMILES
1 | 0.0251 | COc1cc(C(=O)N2C[C@H]3CC[C@@H]2[C@@H]3N)cc2nc(-c3cc4[se]c(C)cc4n3CC3CC3)n(C)c12 [HH-52]
2 | 0.272 | COc1cc(C(=O)N2C[C@H]3CC[C@@H]2[C@@H]3N)cc2nc(-c3cc4sc(C)cc4n3CC3CC3)n(C)c12 [Cpd-27, reference compound]
3 | 0.0668 | COc1cc(C(=O)N2CCC[C@@H](N)C2)cc2nc(-c3cc4sc(C5CC5)nc4n3CC3CC3)n(C)c12 [Cpd-118, reference compound]
4 | 0.0224 | COc1cc(C(=O)N2CCC[C@@H](N)C2)cc2nc(-c3cc4[se]c(C5CC5)nc4n3CC3CC3)n(C)c12 [HH-4]

Same assay, conditions: read-out: IC50 of inhibition enzymatic activity of PAD4 (Colorimetric assays, Nature Chemical Biology, 2015, 11: 189-191)

Row | SMILES | IC50 [µM]
5 | COc1cc(C(=O)N2C[C@H](N)C[C@@H](F)C2)cc2nc(-c3cc4[se]c(C5CCCN5)cc4n3CC3CC3)n(C)c12 (stereo partly shown) [HH-53] | 0.05 to 0.1
6 | CCn1c(-c2nc3cc(C(=O)N4C[C@H](N)C[C@@H](F)C4)cc(OC)c3n2C)cc2[se]c(C)nc21 [HH-21] | 0.1 to 0.5
7 | COc1cc(C(=O)N2C[C@H](N)C[C@@H](F)C2)cc2nc(-c3cc4[se]c(-c5ccccn5)cc4n3CC3CC3)n(C)c12 [HH-63] | 0.1 to 0.5
8 | Cc1nc2c(cc(-c3nc4cc(C(=O)N5C[C@H](N)C[C@@H](F)C5)ccn4c3C)n2CC2CC2)[se]1 [HH-73] | 0.05 to 0.1
9 | COc1cc(C(=O)N2CC[C@@H](F)[C@@H](N)C2)cc2nc(-c3cc4[se]c(C)nc4n3CC3CC3)n(C)c12 [HH-14] | 0.1 to 0.5
10 | COc1cc(C(=O)N2C[C@H](N)C[C@@H](F)C2)cc2nc(-c3cc4[se]ccc4n3CC3CC3)n(C)c12 [HH-47] | 0.05 to 0.1
11 | COc1cc(C(=O)N2C[C@H](N)CC[C@@H]2C)cc2nc(-c3cc4[se]c(C)nc4n3CC3CCC3)n(C)c12 [HH-15] | ≤ 0.05
12 | COc1cc(C(=O)N2C[C@H]3CC[C@@H]2[C@@H]3N)cc2nc(-c3cc4[se]c(C)nc4n3CC3CCC3)n(C)c12 [HH-16] | ≤ 0.05
13 | COc1cc(C(=O)N2C[C@H](N)C[C@@H](F)C2)cc2nc(-c3cc4[se]c(-c5ccncc5)nc4n3CC3CC3)n(C)c12 [HH-42] | 0.1 to 0.5
14 | COc1cc(C(=O)N2C[C@H](N)CC[C@@H]2C)cc2nc(-c3cc4[se]c(C)nc4n3Cc3ccc(C(F)(F)F)cc3)n(C)c12 [HH-28] | > 0.5
15 | COc1cc(C(=O)N2C[C@H]3CC[C@@H]2[C@@H]3N)cn2nc(-c3cc4[se]c(C)nc4n3CC3CC3)c(C)c12 [HH-68] | 0.05 to 0.1
16 | COc1cc(C(=O)N2C[C@H]3CC[C@@H]2[C@@H]3N)cc2nc(-c3cc4[se]c(C)cc4n3CC3CC3)n(C)c12 [HH-52] | ≤ 0.05
17 | COc1cc(C(=O)N2C[C@H](N)CC[C@@H]2C)cc2nc(-c3cc4[se]c(C5CCNCC5)nc4n3CC3CC3)n(C)c12 [HH-35] | 0.05 to 0.1
18 | COc1cccc(Cn2c(-c3nc4cc(C(=O)N5C[C@H](N)CC[C@@H]5C)cc(OC)c4n3C)cc3[se]c(C)nc32)c1 [HH-27] | 0.1 to 0.5
19 | COc1ccccc1-c1nc2c(cc(-c3nc4cc(C(=O)N5C[C@H]6CC[C@@H]5[C@@H]6N)cc(OC)c4n3C)n2CC2CC2)[se]1 [HH-39] | > 0.5
20 | COc1cc(C(=O)N2C[C@H](N)C[C@@H](F)C2)cc2nc(-c3cc4[se]c(C)cc4n3CC3CC3)n(C)c12 [HH-51] | ≤ 0.05
21 | COc1ccccc1-c1cc2c(cc(-c3nc4cc(C(=O)N5C[C@H](N)CC[C@@H]5C)cc(OC)c4n3C)n2CC2CC2)[se]1 [HH-59] | ≤ 0.05
22 | COc1cc(C(=O)N2C[C@H](N)C[C@@H](F)C2)cc2nc(-c3cc4[se]c(C)nc4n3CC3CCC3)n(C)c12 [HH-18] | ≤ 0.05
23 | COc1ccc(-c2nc3c(cc(-c4nc5cc(C(=O)N6C[C@H](N)C[C@@H](F)C6)cc(OC)c5n4C)n3CC3CC3)[se]2)cc1 [HH-40] | 0.1 to 0.5
24 | COc1cc(C(=O)N2C[C@H](N)CC[C@@H]2C)cc2nc(-c3cc4[se]c(-c5ccccn5)cc4n3CC3CC3)n(C)c12 [HH-62] | 0.05 to 0.1
25 | COc1cc(C(=O)N2C[C@H](N)CC[C@@H]2C)cc2nc(-c3cc4[se]c(-c5ccncc5)nc4n3CC3CC3)n(C)c12 [HH-41] | 0.1 to 0.5
26 | Cc1c(-c2cc3[se]c(-c4ccccn4)nc3n2CC2CC2)nn2cc(C(=O)N3C[C@H]4CC[C@@H]3[C@@H]4N)ccc12 [HH-72] | 0.1 to 0.5
27 | COc1cc(C(=O)N2C[C@H]3CC[C@@H]2[C@@H]3N)cc2nc(-c3cc4[se]c(-c5ccc(C)cc5)cc4n3CC3CC3)n(C)c12 [HH-56] | 0.1 to 0.5
28 | Cc1c(-c2cc3[se]c(-c4ccccn4)nc3n2CC2CC2)nn2cc(C(=O)N3C[C@H](N)C[C@@H](F)C3)ccc12 [HH-71] | 0.1 to 0.5
29 | COc1cc(C(=O)N2CCC[C@@H](N)C2)cc2nc(-c3cc4[se]c(C)nc4n3CC3CCC3)n(C)c12 [HH-17] | ≤ 0.05
30 | COc1cc(C(=O)N2C[C@H]3CC[C@@H]2[C@@H]3N)cc2nc(-c3cc4[se]c(C5CCCN5)cc4n3CC3CC3)n(C)c12 (stereo partly shown) [HH-55] | 0.1 to 0.5
31 | COc1cc(C(=O)N2C[C@H](N)CC[C@@H]2C)cc2nc(-c3cc4[se]c(C)nc4n3Cc3ccccn3)n(C)c12 [HH-31] | 0.1 to 0.5
32 | COc1cc(C(=O)N2C[C@H](N)CC[C@@H]2C)cc2nc(-c3cc4[se]c(C)nc4n3Cc3ccoc3)n(C)c12 [HH-32] | 0.1 to 0.5

Second part, the compound after the results:

Row | IC50 [µM] | SMILES
33 | 0.1 to 0.5 | COc1ccccc1-c1nc2c(cc(-c3nc4cc(C(=O)N5C[C@H](N)CC[C@@H]5C)cc(OC)c4n3C)n2CC2CC2)[se]1 [HH-38]
34 | > 0.5 | COc1cc(C(=O)N2C[C@H](N)C[C@@H](F)C2)cc2nc(-c3cc4[se]c(-c5cccc(C)c5)nc4n3CC3CC3)n(C)c12 [HH-46]
35 | 0.1 to 0.5 | COc1cc(C(=O)N2C[C@H]3CC[C@@H]2[C@@H]3N)cc2nc(-c3cc4[se]c(-c5cccc(C)c5)cc4n3CC3CC3)n(C)c12 [HH-57]
36 | ≤ 0.05 | COc1cc(C(=O)N2C[C@H]3CC[C@@H]2[C@@H]3N)cc2nc(-c3cc4[se]c(C5CC5)nc4n3CC3CC3)n(C)c12 [HH-7]
37 | 0.1 to 0.5 | COc1cc(C(=O)N2C[C@H](N)CC[C@@H]2C)cc2nc(-c3cc4[se]c(-c5ccccn5)nc4n3CC3CC3)n(C)c12 [HH-43]
38 | 0.1 to 0.5 | COc1cc(C(=O)N2C[C@H]3CC[C@@H]2[C@@H]3N)cc2nc(-c3cc4[se]c(C5CCNCC5)nc4n3CC3CC3)n(C)c12 [HH-37]
39 | 0.1 to 0.5 | COc1cc(C(=O)N2CC[C@@H](O)[C@@H](N)C2)cc2nc(-c3cc4[se]c(C)nc4n3CC3CC3)n(C)c12 [HH-11]
40 | 0.1 to 0.5 | COc1cc(C(=O)N2C[C@H](N)CC[C@@H]2C)cc2nc(-c3cc4[se]c(C)nc4n3CC(F)(F)F)n(C)c12 [HH-23]
41 | 0.05 to 0.1 | COc1cc(C(=O)N2C[C@H](N)C[C@@H](F)C2)cn2nc(-c3cc4[se]c(C)nc4n3CC3CC3)c(C)c12 [HH-69]
42 | 0.1 to 0.5 | Cc1c(-c2cc3[se]c(-c4ccccn4)nc3n2CC2CC2)nn2cc(C(=O)N3C[C@H](N)CC[C@@H]3C)ccc12 [HH-70]
43 | 0.1 to 0.5 | COc1cc(C(=O)N2C[C@H](N)CC[C@@H]2C)cc2nc(-c3cc4[se]ccc4n3CC3CC3)n(C)c12 [HH-48]
44 | ≤ 0.05 | Cc1nc2c(cc(-c3nc4cc(C(=O)N5C[C@H](N)CC[C@@H]5C)ccn4c3C)n2CC2CC2)[se]1 [HH-75]
45 | 0.1 to 0.5 | COc1cc(C(=O)N2C[C@H](N)CC[C@@H]2C)cc2nc(-c3cc4[se]c(C)nc4n3CC(C)(C)C)n(C)c12 [HH-22]
46 | 0.1 to 0.5 | COc1cc(C(=O)N2C[C@H]3CC[C@@H]2[C@@H]3N)cc2nc(-c3cc4[se]c(-c5ccccn5)cc4n3CC3CC3)n(C)c12 [HH-61]
47 | 0.05 to 0.1 | Cc1nc2c(cc(-c3nc4cc(C(=O)N5C[C@H]6CC[C@@H]5[C@@H]6N)ccn4c3C)n2CC2CC2)[se]1 [HH-74]
48 | ≤ 0.05 | CCc1nc2c(cc(-c3nc4cc(C(=O)N5C[C@H](N)C[C@@H](F)C5)cc(OC)c4n3C)n2CC2CC2)[se]1 [HH-3]
49 | ≤ 0.05 | COc1cc(C(=O)N2CCC[C@@H](N)C2)cc2nc(-c3cc4[se]c(C5CC5)nc4n3CC3CC3)n(C)c12 [HH-4]
